Experimental data reported in US11447566B2, “Anti-tissue factor antibodies, antibody-drug conjugates, and related methods” (Iconic Therapeutics, Inc., priority 2018, dated 2022).
Square brackets hold non-standard residues; d marks the D form. Peptide text beside a SMILES is read from it. * marks the point of attachment. Dolaproine = CO[C@@H]([C@@H]1CCCN1)[C@@H](C)C(=O)O; Dil = CC[C@H](C)[C@H](NC)[C@@H](CC(=O)O)OC; X1 = C[C@@H](N*)[C@@H](O)c1ccccc1; NMeV = CN[C@H](C(=O)O)C(C)C

Legend:
[1] = tested on: human thrombin generation (relipidated TF, normal pooled plasma); test: Thrombin generation assay (TGA); assay type: biochemical; conditions: 100 nM antibody, Example 18
Experimental: (§1) The TGA assay was performed using the calibrated-automated-thrombogram (CAT) instrument manufactured and distributed by STAGO. The test method design was equivalent to a standard CAT assay measurement, except that the plasma source was NPP in citrate/CTI. […] Relipidated TF was added to a 96-well assay plate, followed by addition of the antibody/NPP mixture. After a 10-min incubation or directly after combining the relipidated TF with antibody/NPP, thrombin generation was initiated by the addition of calcium and the thrombin substrate. The STAGO software was used to report the following parameters: Peak IIa (highest thrombin concentration generated [nM]); Lag Time (time to IIa generation [min]); ETP (endogenous thrombin potential, area under the curve [nM×min]); and ttPeak (time to Peak IIa [min]).
as §1, with “was normal pooled plasma (NPP)” for “was NPP”, “in citrate supplemented with corn trypsin inhibitor (citrate/CTI).” for “in citrate/CTI.”
TGA assay was performed using the calibrated-automated-thrombogram (CAT) instrument manufactured and distributed by STAGO (Diagnostica Stago SAS, Asnieres sur Seine, France). […] The anti-TF antibodies were titrated at 0, 10, 50 and 100 nM and mixed with NPP in citrate/CTI. Relipidated TF was added to a 96-well assay plate, followed by addition of the antibody/NPP mixture. After a 10-min incubation or directly after combining the relipidated TF with antibody/NPP, thrombin generation was initiated by the addition of calcium and the thrombin substrate. The STAGO software was used to report the following parameters: Peak IIa (highest thrombin concentration generated on the thrombin generation curve [nM]); Lag Time (time from assay start to the moment 10 nM of thrombin is formed [min]); ETP (endogenous thrombin potential, area under the curve [nM×min]); and ttPeak (time from assay start to Peak IIa [min]). […] As used herein, the term “thrombin generation assay” (TGA) refers to the TGA used in this example.

HUVECs = test: G2/M arrest (phospho-Histone H3), HUVECs; assay type: cell-based, human; conditions: 24 h treatment, with or without inflammatory cytokines
Experimental: (§2) To further understand the resistance of endothelial cells to anti-TF ADCs, cell cycle progression was evaluated 24 h after addition of the cytokines and TF-specific ADCs. Arrest at the G2/M phase of the cell cycle was analyzed as previously described in Theunissen et al, Methods Enzymol, 2006, 409:251-284. Briefly, low-passage HUVECs (Lifeline Cell Technologies, Frederick, Md., USA), propagated in VascuLife VEGF-Mv Endothelial media (Lifeline Cell Technologies), and HCT-116 cells were seeded on 12-well plates. The next day, media was removed and replaced with fresh media (no cytokines) or media containing 5 ng/mL IL1-beta, 25 ng/mL TNF-alpha and 50 ng/mL VEGF (with cytokines). A titration of MMAE-linked ADCs or free MMAE was added to the cells. After 24 h of treatment, cells were fixed in ice-cold 70% ethanol. Subsequently, the cells were washed with flow cytometry buffer (PBS, 1% FBS, 0.1% Triton) and stained for 1 h with a 1:100 dilution of phospho-Histone H3 (Ser10) (D2C8 PE Conjugate, Cell Signaling Technology). After 2 washes, the cells were treated for 20 min with 100 μg/mL PureLink RNAse A (ThermoFisher Scientific), followed by the addition of the viability dye TO-PRO-3 Iodide (ThermoFisher Scientific). 40,000 events were collected on a Novocyte flow cytometer. In the Flowjo data analysis software cell doublets and aneuploid cells were excluded. […]

HCT-116 cells = test: G2/M arrest (phospho-Histone H3), HCT-116 cells; assay type: cell-based, human; conditions: 24 h treatment
Experimental: as §2

[2] = tested on: gastric adenocarcinoma PDX; test: Gastric adenocarcinoma patient-derived xenograft model; assay type: in vivo, athymic nude mice; conditions: end of the study (day 46)
Experimental: TF-positive PDX models were performed in athymic nude mice (Envigo, Indianapolis, Ind.) to evaluate the efficacy of the ADCs in vivo. The animals' care was in accordance with institutional guidelines. Study animals were implanted unilaterally on the left flank with tumor fragments.
Animals were removed from study and euthanized once tumor size reached 1200 mm^3 or skin ulceration was evident. In addition, the MTV curve for the treatment group in question was no longer shown once an animal was removed from study due to size. TGI and statistical analyses were conducted in the same manner as for the CDX studies.

## 10H10: previously described TF-specific antibody (Versteeg et al., 2008; Teplyakov et al., 2017) [reference compound]
[1]; 10 min antibody pre-incubation
  reduction of the peak IIa concentration: 48%
[1]; without antibody pre-incubation
  reduction of the peak IIa concentration: 34%

## CC[C@H](C)[C@@H]([C@@H](CC(=O)N1CCC[C@H]1[C@H](OC)[C@@H](C)C(=O)N[C@H](C)[C@@H](O)c1ccccc1)OC)N(C)C(=O)[C@@H](NC(=O)[C@@H](NC)C(C)C)C(C)C [MMAE, monomethyl auristatin E] (H-[NMeV]V[Dil][Dolaproine]-X1)
HUVECs
  G2/M arrest, pH3-positive HUVECs: increase the phosphorylation of histone H3 to a similar extent
HCT-116 cells
  G2/M arrest, pH3-positive HCT-116 cells: increase the phosphorylation of histone H3 to a similar extent

## TF-011 ADC
[2]
  complete responders: 1 animals
  tumor-free survivors: 5 animals
